Patent US20160145258A1, “Inhibitor Crystalline Form and Preparation Method and Use Thereof” (Hangzhou Pushai Pharmaceutical Technology Co., LTD., priority 2013, published 2016)
Entries after “also recorded” stand apart in the source; their conditions may differ.

What was measured:
Format in all cases: physicochemical
[1] = Competitive slurry 1 in nitromethane, solids characterized by XRPD; conditions: equal quantity (5 mg) of Form I, II, III, IV and VIII in nitromethane, room temperature, 7 days
Text: (§1) The slurry method described in the present invention refers to stirring of a supersaturated solution of the sample (with undissolved solids) in various solvent systems for crystallization. Usually, the duration is 14 days.

[2] = Hygroscopicity by dynamic vapor sorption (DVS) isothermal sorption; conditions: for Weight change within 20%-80% RH range: DVS isothermal sorption, relative humidity 20%-80%; for Hygroscopicity in words (compared to Form I): from DVS weight change within 20-80% RH
Experimental: Dynamic vapor sorption (DVS) data were collected using TA Instruments Q500 TGA. The instrument control software was Thermal Advantage, and the analytical software was Universal Analysis. Usually, 1-10 mg of the sample was placed in a platinum pan, and the weight change of the sample during studies was recorded. The relative humidity was usually programed to change from 50% to 80% to 0% and then back to 50%, and an isothermal sorption plot could be generated. Depending on specific situations, different sorption and desorption procedures might be used. Hygroscopicity comparison: DVS isothermal sorption curves were used, and weight changes within the 20%-80% RH range were measured.

[3] = Competitive slurry of Form IX and Form I in mixed solvents of ethanol and water, solids characterized by XRPD; conditions: equal quantity (4 mg) of Form IX and Form I in 1 mL ethanol and water (1:1, 1:4, 1:5 and 1:10), room temperature, 7 days
[4] = Competitive slurry 2 in mixed solvent of isopropanol and water, solids characterized by XRPD; conditions: equal quantity (5 mg) of Form VI and Form IX in 1 mL isopropanol and water (1:4, v/v), room temperature, 7 days
Text: as §1

Row | Structure (SMILES) | Competitive slurry 1: crystal form after slurry [1] | Weight change within 20%-80% RH range [2] | Competitive slurry: crystal form after slurry [3] | Hygroscopicity in words (compared to Form I) [2] | Competitive slurry 2: crystal form after slurry [4] | Hygroscopicity in words (compared to Form I) ([2]; listed as Form. IX)
1 | CC[C@H](Nc1ncnc2[nH]cnc12)c1nc2cccc(F)c2c(=O)n1-c1ccccc1 [Form I, 5-fluoro-3-phenyl-2-[(S)-1-(9H-purin-6-ylamino)-propyl]-3H-quinazoline-4-one, reference compound] | transformed into Form III | 0.95% | transformed into Form IX |  |  | 
2 | CC[C@H](Nc1ncnc2[nH]cnc12)c1nc2cccc(F)c2c(=O)n1-c1ccccc1 [Form II, 5-fluoro-3-phenyl-2-[(S)-1-(9H-purin-6-ylamino)-propyl]-3H-quinazoline-4-one] | transformed into Form III | 0.46% |  | less hygroscopic |  | 
3 | CC[C@H](Nc1ncnc2[nH]cnc12)c1nc2cccc(F)c2c(=O)n1-c1ccccc1 [Form III, 5-fluoro-3-phenyl-2-[(S)-1-(9H-purin-6-ylamino)-propyl]-3H-quinazoline-4-one] | thermodynamically the most stable form; also recorded: III remained unchanged | 0.44% |  | less hygroscopic |  | 
4 | CC[C@H](Nc1ncnc2[nH]cnc12)c1nc2cccc(F)c2c(=O)n1-c1ccccc1 [Form IV, 5-fluoro-3-phenyl-2-[(S)-1-(9H-purin-6-ylamino)-propyl]-3H-quinazoline-4-one] | transformed into Form III | 0.27% |  | less hygroscopic; also recorded: least hygroscopicity; also recorded: low hygroscopicity |  | 
5 | CC[C@H](Nc1ncnc2[nH]cnc12)c1nc2cccc(F)c2c(=O)n1-c1ccccc1 [Form IX, 5-fluoro-3-phenyl-2-[(S)-1-(9H-purin-6-ylamino)-propyl]-3H-quinazoline-4-one] |  | 0.3% | more stable; also recorded: remained unchanged; also recorded: unchanged, while Form I | less hygroscopic; also recorded: lower hygroscopicity; also recorded: least hygroscopicity | transformed into Form VI; also recorded: Form VI, while Form VI | low hygroscopicity
6 | CC[C@H](Nc1ncnc2[nH]cnc12)c1nc2cccc(F)c2c(=O)n1-c1ccccc1 [Form VI, 5-fluoro-3-phenyl-2-[(S)-1-(9H-purin-6-ylamino)-propyl]-3H-quinazoline-4-one] |  | 0.57% |  | lower hygroscopicity; also recorded: less hygroscopic | remained unchanged | 
7 | CC[C@H](Nc1ncnc2[nH]cnc12)c1nc2cccc(F)c2c(=O)n1-c1ccccc1 [Form VIII, 5-fluoro-3-phenyl-2-[(S)-1-(9H-purin-6-ylamino)-propyl]-3H-quinazoline-4-one] | transformed into Form III | 0.84% |  | less hygroscopic; also recorded: low hygroscopicity |  | 
